Test results published in ChEMBL document CHEMBL3994622, “Design and synthesis of new RAF kinase-inhibiting antiproliferative quinoline derivatives. Part 2: Diarylurea derivatives” (Eur J Med Chem, 2017).

Columns and labels:
Assay type in all cases: functional
UACC-62 [1] = assay: Growth inhibition of human UACC62 cells assessed as cell growth at 0.1 uM incubated for 48 hrs by sulforhodamine B assay relative to control; details: UACC-62, 48 h, read-out: Activity
CAKI-1 [2] = assay: Growth inhibition of human Caki1 cells assessed as cell growth at 10 uM incubated for 48 hrs by sulforhodamine B assay relative to control; details: CAKI-1, 48 h, read-out: Activity
CCRF-CEM [3] = assay: Growth inhibition of human CCRF-CEM cells assessed as cell growth at 10 uM incubated for 48 hrs by sulforhodamine B assay relative to control; details: read-out: Activity
HCT-116 [4] = assay: Growth inhibition of human HCT116 cells assessed as cell growth at 100 uM incubated for 48 hrs by sulforhodamine B assay relative to control; details: HCT-116, 48 h, read-out: Activity
Malme-3M = assay: Growth inhibition of human MALME-3M cells assessed as cell growth at 0.01 uM incubated for 48 hrs by sulforhodamine B assay relative to control; details: read-out: Activity
SF-268 [5] = assay: Growth inhibition of human SF268 cells assessed as cell growth at 0.01 uM incubated for 48 hrs by sulforhodamine B assay relative to control; details: SF-268, 48 h, read-out: Activity
SK-MEL-5 = assay: Growth inhibition of human SK-MEL-5 cells assessed as cell growth at 0.01 uM incubated for 48 hrs by sulforhodamine B assay relative to control; details: SK-MEL-5, 48 h, read-out: Activity
HOP-92 [6] = assay: Growth inhibition of human HOP92 cells assessed as cell growth at 0.1 uM incubated for 48 hrs by sulforhodamine B assay relative to control; details: HOP-92, 48 h, read-out: Activity
CAKI-1 [7] = assay: Growth inhibition of human Caki1 cells assessed as cell growth at 0.01 uM incubated for 48 hrs by sulforhodamine B assay relative to control; details: CAKI-1, 48 h, read-out: Activity
KM12 = assay: Growth inhibition of human KM12 cells assessed as cell growth at 1 uM incubated for 48 hrs by sulforhodamine B assay relative to control; details: KM12, 48 h, read-out: Activity
LOX IMVI [8] = assay: Growth inhibition of human LOXIMVI cells assessed as cell growth at 0.01 uM incubated for 48 hrs by sulforhodamine B assay relative to control; details: read-out: Activity
OVCAR-3 = assay: Growth inhibition of human OVCAR3 cells assessed as cell growth at 100 uM incubated for 48 hrs by sulforhodamine B assay relative to control; details: OVCAR-3, 48 h, read-out: Activity
LOX IMVI [9] = assay: Growth inhibition of human LOXIMVI cells assessed as cell growth at 100 uM incubated for 48 hrs by sulforhodamine B assay relative to control; details: read-out: Activity
SF-268 [10] = assay: Growth inhibition of human SF268 cells assessed as cell growth at 1 uM incubated for 48 hrs by sulforhodamine B assay relative to control; details: SF-268, 48 h, read-out: Activity
SNB-19 [11] = assay: Growth inhibition of human SNB19 cells assessed as cell growth at 1 uM incubated for 48 hrs by sulforhodamine B assay relative to control; details: SNB-19, 48 h, read-out: Activity
HOP-92 [12] = assay: Growth inhibition of human HOP92 cells assessed as cell growth at 10 uM incubated for 48 hrs by sulforhodamine B assay relative to control; details: HOP-92, 48 h, read-out: Activity
K562 = assay: Growth inhibition of human K562 cells assessed as cell growth at 3 uM incubated for 48 hrs by sulforhodamine B assay relative to control; details: K562, 48 h, read-out: Activity
CCRF-CEM [13] = assay: Growth inhibition of human CCRF-CEM cells assessed as cell growth at 0.03 uM incubated for 48 hrs by sulforhodamine B assay relative to control; details: read-out: Activity
NCI/ADR-RES = assay: Growth inhibition of human NCI/ADR-RES cells assessed as cell growth at 0.03 uM incubated for 48 hrs by sulforhodamine B assay relative to control; details: read-out: Activity
RXF 393 = assay: Growth inhibition of human RXF393 cells assessed as cell growth at 0.03 uM incubated for 48 hrs by sulforhodamine B assay relative to control; details: RXF 393, 48 h, read-out: Activity
HT-29 = assay: Growth inhibition of human HT-29 cells assessed as cell growth at 0.03 uM incubated for 48 hrs by sulforhodamine B assay relative to control; details: HT-29, 48 h, read-out: Activity
UACC-62 [14] = assay: Growth inhibition of human UACC62 cells assessed as cell growth at 0.003 uM incubated for 48 hrs by sulforhodamine B assay relative to control; details: UACC-62, 48 h, read-out: Activity
SNB-19 [15] = assay: Growth inhibition of human SNB19 cells assessed as cell growth at 0.3 uM incubated for 48 hrs by sulforhodamine B assay relative to control; details: SNB-19, 48 h, read-out: Activity
IGROV-1 = assay: Growth inhibition of human IGROV1 cells assessed as cell growth at 0.003 uM incubated for 48 hrs by sulforhodamine B assay relative to control; details: IGROV-1, 48 h, read-out: Activity
UO-31 = assay: Growth inhibition of human UO31 cells assessed as cell growth at 0.03 uM incubated for 48 hrs by sulforhodamine B assay relative to control; details: UO-31, 48 h, read-out: Activity
SF-268 [16] = assay: Growth inhibition of human SF268 cells assessed as cell growth at 3 uM incubated for 48 hrs by sulforhodamine B assay relative to control; details: SF-268, 48 h, read-out: Activity
HOP-62 = assay: Growth inhibition of human HOP62 cells assessed as cell growth at 3 uM incubated for 48 hrs by sulforhodamine B assay relative to control; details: HOP-62, 48 h, read-out: Activity
DU-145 = assay: Growth inhibition of human DU145 cells assessed as cell growth at 0.3 uM incubated for 48 hrs by sulforhodamine B assay relative to control; details: DU-145, 48 h, read-out: Activity
SNB-75 = assay: Growth inhibition of human SNB75 cells assessed as cell growth at 0.003 uM incubated for 48 hrs by sulforhodamine B assay relative to control; details: SNB-75, 48 h, read-out: Activity
T47D = assay: Growth inhibition of human T47D cells assessed as cell growth at 0.003 uM incubated for 48 hrs by sulforhodamine B assay relative to control; details: read-out: Activity
UACC-62 [17] = assay: Growth inhibition of human UACC62 cells assessed as cell growth at 0.3 uM incubated for 48 hrs by sulforhodamine B assay relative to control; details: UACC-62, 48 h, read-out: Activity
MCF7 = assay: Growth inhibition of human MCF7 cells assessed as cell growth at 0.003 uM incubated for 48 hrs by sulforhodamine B assay relative to control; details: MCF7, 48 h, read-out: Activity
PC-3 = assay: Growth inhibition of human PC3 cells assessed as cell growth at 0.3 uM incubated for 48 hrs by sulforhodamine B assay relative to control; details: PC-3, 48 h, read-out: Activity
SNB-19 [18] = assay: Growth inhibition of human SNB19 cells assessed as cell growth at 30 uM incubated for 48 hrs by sulforhodamine B assay relative to control; details: SNB-19, 48 h, read-out: Activity
SF-539 = assay: Growth inhibition of human SF539 cells assessed as cell growth at 30 uM incubated for 48 hrs by sulforhodamine B assay relative to control; details: SF-539, 48 h, read-out: Activity
HCT-116 [19] = assay: Growth inhibition of human HCT116 cells assessed as cell growth at 30 uM incubated for 48 hrs by sulforhodamine B assay relative to control; details: HCT-116, 48 h, read-out: Activity

SMILES	growth at 0.1 µM (UACC-62 [1]) [%]	growth at 10 µM (CAKI-1 [2]) [%]	growth at 10 µM (CCRF-CEM [3]) [%]	growth at 100 µM (HCT-116 [4]) [%]	growth at 0.01 µM (Malme-3M) [%]	growth at 0.01 µM (SF-268 [5]) [%]	growth at 0.01 µM (SK-MEL-5) [%]	growth at 0.1 µM (HOP-92 [6]) [%]	growth at 0.01 µM (CAKI-1 [7]) [%]	growth at 1 µM (KM12) [%]	growth at 0.01 µM (LOX IMVI [8]) [%]	growth at 100 µM (OVCAR-3) [%]	growth at 100 µM (LOX IMVI [9]) [%]	growth at 1 µM (SF-268 [10]) [%]	growth at 1 µM (SNB-19 [11]) [%]	growth at 10 µM (HOP-92 [12]) [%]	growth at 3 µM (K562) [%]	growth at 0.03 µM (CCRF-CEM [13]) [%]	growth at 0.03 µM (NCI/ADR-RES) [%]	growth at 0.03 µM (RXF 393) [%]	also measured
COc1cc2cc(Oc3ccc(NC(=O)Nc4cc(C(F)(F)F)cc(C(F)(F)F)c4)cc3)c(C)nc2cc1OC	96	-26	-33	-87	87	97	100	90	88	48	97	-89	-90	79	39	-38					
Cc1nc2cc(O)c(O)cc2cc1Oc1ccc(NC(=O)Nc2ccc(Cl)c(Cl)c2)cc1																	76	95	97	96	growth at 0.03 µM (HT-29): 103%; growth at 0.003 µM (UACC-62 [14]): 96%; growth at 0.3 µM (SNB-19 [15]): 117%; growth at 0.003 µM (IGROV-1): 104%; growth at 0.03 µM (UO-31): 98%; growth at 3 µM (SF-268 [16]): 85%; growth at 3 µM (HOP-62): 87%; growth at 0.3 µM (DU-145): 106%; growth at 0.003 µM (SNB-75): 80%; growth at 0.003 µM (T47D): 102%; growth at 0.3 µM (UACC-62 [17]): 100%; growth at 0.003 µM (MCF7): 94%; growth at 0.3 µM (PC-3): 97%; growth at 30 µM (SNB-19 [18]): 2%; growth at 30 µM (SF-539): -19%; growth at 30 µM (HCT-116 [19]): -26%
COc1cc2cc(Oc3ccc(NC(=O)Nc4ccc(Cl)c(Cl)c4)cc3)c(C)nc2cc1OC	89	-18	4	-100	102	103	103	92	88	93	95	-98	-100	110	92	-41					
COc1cc2cc(Oc3ccc(NC(=O)Nc4ccc(Cl)c(C(F)(F)F)c4)cc3)c(C)nc2cc1OC																	12	103	98	104	growth at 0.03 µM (HT-29): 100%; growth at 0.003 µM (UACC-62 [14]): 96%; growth at 0.3 µM (SNB-19 [15]): 96%; growth at 0.003 µM (IGROV-1): 107%; growth at 0.03 µM (UO-31): 89%; growth at 3 µM (SF-268 [16]): 26%; growth at 3 µM (HOP-62): 26%; growth at 0.3 µM (DU-145): 95%; growth at 0.003 µM (SNB-75): 90%; growth at 0.003 µM (T47D): 94%; growth at 0.3 µM (UACC-62 [17]): 81%; growth at 0.003 µM (MCF7): 98%; growth at 0.3 µM (PC-3): 83%; growth at 30 µM (SNB-19 [18]): -87%; growth at 30 µM (SF-539): -49%; growth at 30 µM (HCT-116 [19]): -83%
